From patent US20200017467A1, “NOVEL TRIAZOLE DERIVATIVES” (BAYER CROPSCIENCE AKTIENGESELLSCHAFT, priority 2017, published 2020) come the findings set out here.

The test system of data set [1] is Septoria tritici. Nature of the data set: Example F-B: in vivo curative Septoria tritici test (wheat). The following applies: Zymoseptoria tritici, 504 h, sprayed 48 hours after inoculation, evaluated 21 days after inoculation, read-out: Efficacy in % Example F-B. Here is the method: Example F: In Vivo Septoria tritici Test (Wheat); Comparison of Pyridinyloxy-Pyridyl Compounds According to the Invention Vs. Compounds Known from WO-A 2010/146116 [table] To produce a suitable preparation of active compound, 1 part by weight of active compound or active compound combination is mixed with the stated amounts of solvent and emulsifier, and the concentrate is diluted with water to the desired concentration. Example F-B: In Vivo Curative Septoria tritici Test (Wheat) To test for curative activity, young plants are inoculated with a spore suspension of Septoria tritici and remain for 48 hours in an incubation cabinet at a temperature of approximately 20° C. and a relative atmospheric humidity of approximately 100%. 48 hours after the incubation, the plants are sprayed with the preparation of active compound or active compound combination at the stated rate of application. After application the plants remain for 60 hours at a temperature of approximately 15° C. in a translucent incubation cabinet at a relative atmospheric humidity of approximately 100%. Afterwards, the plants are placed in the greenhouse at a temperature of approximately 15° C. and a relative atmospheric humidity of approximately 80%. The test is evaluated 21 days after the inoculation. 0% means an efficacy which corresponds to that of the untreated control, while an efficacy of 100% means that no disease is observed.

Data set [2] can be described thus: Log P by HPLC on reversed phase columns (EEC directive 79/831 Annex V.A8). The following applies: reversed phase HPLC columns; method [a]: LC-UV, acidic range, 0.1% formic acid in water and acetonitrile; compounds of formula (I). The class given is physicochemical. Here is the method: Log P values: Measurement of Log P values was performed according to EEC directive 79/831 Annex V.A8 by HPLC (High Performance Liquid Chromatography) on reversed phase columns with the following methods: • ^[a] Log P value is determined by measurement of LC-UV, in an acidic range, with 0.1% formic acid in water and acetonitrile as eluent (linear gradient from 10% acetonitrile to 95% acetonitrile). • ^[b] Log P value is determined by measurement of LC-UV, in a neutral range, with 0.001 molar ammonium acetate solution in water and acetonitrile as eluent (linear gradient from 10% acetonitrile to 95% acetonitrile). • ^[c] Log P value is determined by measurement of LC-UV, in an acidic range, with 0.1% phosphoric acid and acetonitrile as eluent (linear gradient from 10% acetonitrile to 95% acetonitrile). If more than one Log P value is available within the same method, all the values are given and separated by “+”. Calibration was done with straight-chain alkan2-ones (with 3 to 16 carbon atoms) with known Log P values (measurement of Log P values using retention times with linear interpolation between successive alkanones). Lambda-max-values were determined using UV-spectra from 200 nm to 400 nm and the peak values of the chromatographic signals.

Data set [3] relates to Septoria tritici. Nature of the data set: In vivo preventive test on Septoria tritici (leaf spot on wheat). The following applies: Zymoseptoria tritici, 576 h, 500 ppm of active ingredient, preventive spray, evaluated 24 days after inoculation, read-out: efficacy. How it is done:
Example B: In Vivo Preventive Test on Septoria tritici (Leaf Spot on Wheat) [table] The active ingredients were made soluble and homogenized in a mixture of dimethyl sulfoxide/acetone//Tween® 80 and then diluted in water to the desired concentration. Young plants of wheat were treated by spraying the active ingredient prepared as described above. Control plants were treated only with an aqueous solution of acetone/dimethyl sulfoxide/Tween® 80. After 24 hours, the plants were contaminated by spraying the leaves with an aqueous suspension of Septoria tritici spores. The contaminated wheat plants were incubated for 72 hours at 18° C. and at 100% relative humidity and then for 21 days at 20° C. and at 90% relative humidity. The test was evaluated 24 days after the inoculation. 0% means an efficacy which corresponds to that of the control plants while an efficacy of 100% means that no disease was observed.

For the compound `CC(O)(Cn1cncn1)c1ccc(Oc2ccc(Br)nc2)nc1C(F)(F)F` (stereo not drawn) [I-01, 2-[6-[(6-bromo-3-pyridyl)oxy]-2-(trifluoromethyl)-3-pyridyl]-1-(1,2,4-triazol-1-yl)propan-2-ol], the pest or weed control at 500 ppm in the data set with Septoria tritici [1] is 93%; in the data set with Septoria tritici [3], 90 to 100%. The compound further came in with a chromatographic logP in data set [2] of 2.25.

For `CC(O)(Cn1cncn1)c1ccc(Oc2ccc(C(F)(F)F)nc2)nc1C(F)(F)F` (stereo not drawn) [I-02, 1-(1,2,4-triazol-1-yl)-2-[2-(trifluoromethyl)-6-[[6-(trifluoromethyl)-3-pyridyl]oxy]-3-pyridyl]propan-2-ol], the values for the pest or weed control at 500 ppm in the data set with Septoria tritici [1] and in the data set on Septoria tritici [3] were 100% and 90 to 100%, respectively. Further, the chromatographic logP in data set [2] was determined as 2.56.

Consider `CC(O)(Cn1cncn1)c1cnc(Oc2ccc(C(F)(F)F)nc2)cc1C(F)(F)F` (stereo not drawn) [I-04], for which the results for the pest or weed control at 500 ppm in the data set on Septoria tritici [1] and in the data set with Septoria tritici [3] were 100% and 90 to 100%, respectively. The compound also displayed a chromatographic logP in data set [2] of 2.53.

Regarding `CC(O)(Cn1cncn1)c1ccc(Oc2ccc(Cl)nc2)nc1C(F)(F)F` (stereo not drawn) [I-05], the pest or weed control at 500 ppm was 100% in the data set on Septoria tritici [1] and 90 to 100% in the data set with Septoria tritici [3]. In data set [2], this compound displayed a chromatographic logP of 2.21.

Turning to `CC(O)(Cn1cncn1)c1cnc(Oc2ccc(Cl)nc2)cc1C(F)(F)F` (stereo not drawn) [I-06, 2-[6-[(6-chloro-3-pyridyl)oxy]-4-(trifluoromethyl)-3-pyridyl]-1-(1,2,4-triazol-1-yl)propan-2-ol], the values for the pest or weed control at 500 ppm in the data set on Septoria tritici [1] and in the data set on Septoria tritici [3] were 100% and 90 to 100%, respectively. The chromatographic logP in data set [2] turned out to be 2.18.

On to `CC(O)(Cn1cncn1)c1cnc(Oc2ccc(Br)nc2)cc1C(F)(F)F` (stereo not drawn) [I-07], for which the pest or weed control at 500 ppm in the data set on Septoria tritici [1] was 70%; with Septoria tritici [3], 90 to 100%. The compound also registered a chromatographic logP in data set [2] of 2.3.

For the compound `OC(Cn1cncn1)c1ccc(Oc2ccc(C(F)(F)F)nc2)nc1C(F)(F)F` (stereo not drawn) [I-09], the pest or weed control at 500 ppm is 86% with Septoria tritici [1] and 90 to 100% with Septoria tritici [3]. In data set [2], this compound had a chromatographic logP of 2.2.

Regarding `OC(Cn1cncn1)c1cnc(Oc2ccc(Br)nc2)cc1C(F)(F)F` (stereo not drawn) [I-13], the figures for the pest or weed control at 500 ppm with Septoria tritici [1] and in the data set with Septoria tritici [3] were 60% and 90 to 100%, respectively. In addition, the chromatographic logP in data set [2] came to 2.13.

The term chromatographic logP denotes lipophilicity estimated from chromatographic retention.
